Source: US20230265103A1 (TME Therapeutics LLC, priority 2021, published 2023)

Target: T1, PIKFYVE (Homo sapiens, UniProt Q9Y2I7)
T1 construct: purchased Eurofins (KINOMEscan); host or cells: E. coli BL21-derived (T7 phage display) or HEK-293
Assay: KINOMEscan Kinase Assay (Eurofins), PIKFYVE inhibitory activity
Type: binding
Conditions: for IC50: KINOMEscan; for inhibition at 0.003 µM: @ 3 nM; for inhibition at 0.05 µM: @ 50 nM

T1 sequence (Q9Y2I7 whole entry): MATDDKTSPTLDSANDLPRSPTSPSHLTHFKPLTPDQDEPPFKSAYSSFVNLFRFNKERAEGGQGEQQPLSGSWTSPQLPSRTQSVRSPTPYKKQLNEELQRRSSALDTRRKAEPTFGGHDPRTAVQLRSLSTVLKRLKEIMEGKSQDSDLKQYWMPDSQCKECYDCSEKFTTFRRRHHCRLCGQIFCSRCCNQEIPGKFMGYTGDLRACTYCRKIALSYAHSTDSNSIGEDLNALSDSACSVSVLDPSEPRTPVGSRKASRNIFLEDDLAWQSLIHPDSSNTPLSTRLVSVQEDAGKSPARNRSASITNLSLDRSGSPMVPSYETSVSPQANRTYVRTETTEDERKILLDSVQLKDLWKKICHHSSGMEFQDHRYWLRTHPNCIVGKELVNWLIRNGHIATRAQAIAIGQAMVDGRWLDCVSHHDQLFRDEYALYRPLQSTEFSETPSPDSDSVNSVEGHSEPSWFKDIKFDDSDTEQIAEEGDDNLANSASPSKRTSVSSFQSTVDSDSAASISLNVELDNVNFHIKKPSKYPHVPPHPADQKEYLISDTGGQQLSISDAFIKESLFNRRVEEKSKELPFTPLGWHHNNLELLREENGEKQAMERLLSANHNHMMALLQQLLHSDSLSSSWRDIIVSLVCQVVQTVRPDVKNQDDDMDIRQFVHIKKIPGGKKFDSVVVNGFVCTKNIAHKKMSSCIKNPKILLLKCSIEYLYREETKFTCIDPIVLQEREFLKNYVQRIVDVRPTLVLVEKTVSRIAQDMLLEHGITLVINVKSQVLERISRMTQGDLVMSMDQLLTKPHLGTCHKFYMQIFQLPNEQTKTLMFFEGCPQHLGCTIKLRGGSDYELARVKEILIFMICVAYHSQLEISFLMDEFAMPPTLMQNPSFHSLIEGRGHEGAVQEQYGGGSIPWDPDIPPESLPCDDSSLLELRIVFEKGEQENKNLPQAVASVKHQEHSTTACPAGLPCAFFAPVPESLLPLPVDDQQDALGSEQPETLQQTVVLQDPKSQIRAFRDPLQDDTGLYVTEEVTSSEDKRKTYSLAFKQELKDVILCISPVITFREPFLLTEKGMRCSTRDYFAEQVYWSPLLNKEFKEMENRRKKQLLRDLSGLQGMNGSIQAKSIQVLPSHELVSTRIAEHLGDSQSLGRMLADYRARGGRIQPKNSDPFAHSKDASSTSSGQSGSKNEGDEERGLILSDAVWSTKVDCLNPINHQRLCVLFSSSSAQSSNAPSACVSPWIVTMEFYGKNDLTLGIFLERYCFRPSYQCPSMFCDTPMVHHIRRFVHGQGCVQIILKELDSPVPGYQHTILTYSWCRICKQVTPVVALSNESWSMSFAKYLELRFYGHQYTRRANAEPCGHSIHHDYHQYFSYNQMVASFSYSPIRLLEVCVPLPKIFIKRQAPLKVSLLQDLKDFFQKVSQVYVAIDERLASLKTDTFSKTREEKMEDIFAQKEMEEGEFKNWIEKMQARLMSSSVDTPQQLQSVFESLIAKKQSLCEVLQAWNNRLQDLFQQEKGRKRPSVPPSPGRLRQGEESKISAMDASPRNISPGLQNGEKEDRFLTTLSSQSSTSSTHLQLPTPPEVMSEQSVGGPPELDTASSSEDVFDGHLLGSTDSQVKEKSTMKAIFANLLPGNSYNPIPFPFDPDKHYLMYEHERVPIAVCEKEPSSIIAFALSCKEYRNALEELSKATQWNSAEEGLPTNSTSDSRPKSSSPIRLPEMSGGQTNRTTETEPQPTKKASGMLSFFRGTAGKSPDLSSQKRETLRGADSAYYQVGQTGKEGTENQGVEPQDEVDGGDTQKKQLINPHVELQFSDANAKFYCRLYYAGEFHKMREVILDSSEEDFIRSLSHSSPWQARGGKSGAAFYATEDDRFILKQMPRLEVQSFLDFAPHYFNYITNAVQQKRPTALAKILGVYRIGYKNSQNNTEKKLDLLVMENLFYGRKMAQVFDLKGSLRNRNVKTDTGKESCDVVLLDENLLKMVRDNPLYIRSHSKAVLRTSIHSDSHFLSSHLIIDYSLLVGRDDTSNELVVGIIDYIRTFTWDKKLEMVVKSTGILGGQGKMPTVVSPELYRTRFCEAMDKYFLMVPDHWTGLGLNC

IC50	Structure (SMILES)	other results
< 1 nM	Cc1cccc(-c2ccn(-c3nc(N4CCOCC4)c4sc(CN5CC[C@H](N(C)C)C5)cc4n3)n2)c1 [Ex. 19, (S)—N,N-dimethyl-1-((4-morpholino-2-(3-(m-tolyl)-1H-pyrazol-1-yl)thieno[3,2-d]pyrimidin-6-yl)methyl)pyrrolidin-3-amine]	–
< 1 nM	Cc1cccc(-c2ccn(-c3nc(N4CCOCC4)c4sc(C(=O)N5CC[C@@H](N(C)C)C5)cc4n3)n2)c1 [Ex. 21, (R)-(3-(dimethylamino)pyrrolidin-1-yl)(4-morpholino-2-(3-(m-tolyl)-1H-pyrazol-1-yl)thieno[3,2-d]pyrimidin-6-yl)methanone]	–
1 to 10 nM	Cc1cccc(-c2ccn(-c3nc(N4CCOCC4)c4sc(C(C)N5CCN(S(C)(=O)=O)CC5)cc4n3)n2)c1 (stereo not drawn) [Ex. 26, 4-(6-(1-(4-(methylsulfonyl)piperazin-1-yl)ethyl)-2-(3-(m-tolyl)-1H-pyrazol-1-yl)thieno[3,2-d]pyrimidin-4-yl)morpholine]	–
1 to 10 nM	Cc1cccc(-c2ccn(-c3nc(N4CCOCC4)c4sc(CN5CC(C6CCOCC6)C5)c(C)c4n3)n2)c1 [Ex. 63, 4-(7-methyl-6-((3-(tetrahydro-2H-pyran-4-yl)azetidin-1-yl)methyl)-2-(3-(m-tolyl)-1H-pyrazol-1-yl)thieno[3,2-d]pyrimidin-4-yl)morpholine]	–
1 to 10 nM	Cc1cccc(-c2ccn(-c3nc(N4CCOCC4)c4sc(C(=O)N5CC[C@@H](N(C)C)C5)c(C)c4n3)n2)c1 [Ex. 60, (R)-(3-(dimethylamino)pyrrolidin-1-yl)(7-methyl-4-morpholino-2-(3-(m-tolyl)-1H-pyrazol-1-yl)thieno[3,2-d]pyrimidin-6-yl)methanone]	–
< 1 nM	Cc1cccc(-c2ccn(-c3nc(N4CCOCC4)c4sc(C(=O)N5CCN(C)CC5)cc4n3)n2)c1 [Ex. 25, (4-methylpiperazin-1-yl)(4-morpholino-2-(3-(m-tolyl)-1H-pyrazol-1-yl)thieno[3,2-d]pyrimidin-6-yl)methanone]	–
< 1 nM	Cc1cccc(-c2ccn(-c3nc(N4CCOCC4)c4sc(CN5CCC(N(C)C)C(F)C5)cc4n3)n2)c1 (stereo not drawn) [Ex. 51, 3-fluoro-N,N-dimethyl-1-((4-morpholino-2-(3-(m-tolyl)-1H-pyrazol-1-yl)thieno[3,2-d]pyrimidin-6-yl)methyl)piperidin-4-amine]	–
< 1 nM	Cc1cccc(-c2ccn(-c3cc(N4CCOCC4)c4nc(CN5CC[C@H](N(C)C)C5)[nH]c4n3)n2)c1 [Ex. 46, (S)—N,N-dimethyl-1-((7-morpholino-5-(3-(m-tolyl)-1H-pyrazol-1-yl)-3H-imidazo[4,5-b]pyridin-2-yl)methyl)pyrrolidin-3-amine]	–
–	Cc1cccc(-c2ccn(-c3nc(N4CCOCC4)c4nc(CN5CCOCC5)n(C)c4n3)n2)c1 [Ex. 56, 4-((9-methyl-6-morpholino-2-(3-(m-tolyl)-1H-pyrazol-1-yl)-9H-purin-8-yl)methyl)morpholine]	inhibition at 0.003 µM: 94%
< 1 nM	Cc1cccc(-c2ccn(-c3nc(N4CCOCC4)c4nc(-c5cnn(C)c5)sc4n3)n2)c1 [Ex. 49, 4-(2-(1-methyl-1H-pyrazol-4-yl)-5-(3-(m-tolyl)-1H-pyrazol-1-yl)thiazolo[5,4-d]pyrimidin-7-yl)morpholine]	–
–	Cc1cccc(-c2ccn(-c3nc(N4CCOCC4)c4sc(CN5CCC(N(C)S(C)(=O)=O)CC5)cc4n3)n2)c1 [Ex. 6, N-methyl-N-(1-((4-morpholino-2-(3-(m-tolyl)-1H-pyrazol-1-yl)thieno[3,2-d]pyrimidin-6-yl)methyl)piperidin-4-yl)methanesulfonamide]	inhibition at 0.05 µM: 100%
< 1 nM	Cc1cccc(-c2ccn(-c3cc(N4CCOCC4)c4sc(CN5CCN(C)CC5)cc4n3)n2)c1 [Ex. 67]	–
< 1 nM	Cc1cccc(-c2ccn(-c3nc(N4CCOCC4)c4sc(CN5CCC(N6CCC6)C(F)C5)cc4n3)n2)c1 (stereo not drawn)	–
1 to 10 nM	Cc1cccc(-c2ccn(-c3nc(N4CCOCC4)c4nc(CN5CCC(C(C)(C)O)CC5)[nH]c4n3)n2)c1 [Ex. 13, 2-(1-((6-morpholino-2-(3-(m-tolyl)-1H-pyrazol-1-yl)-9H-purin-8-yl)methyl)piperidin-4-yl)propan-2-ol]	–
< 1 nM	Cc1cccc(-c2ccn(-c3nc(N4CCOCC4)c4nc(CN5CCC(N(C)C)CC5)[nH]c4n3)n2)c1 [Ex. 15, N,N-dimethyl-1-((6-morpholino-2-(3-(m-tolyl)-1H-pyrazol-1-yl)-9H-purin-8-yl)methyl)piperidin-4-amine]	–
< 1 nM	Cc1cccc(-c2ccn(-c3nc(N4CCOCC4)c4nc(CN5CCC(N6CCC6)C(F)C5)[nH]c4n3)n2)c1 (stereo not drawn) [Ex. 43, 4-(8-((4-(azetidin-1-yl)-3-fluoropiperidin-1-yl)methyl-2-(3-m-tolyl)-1H-pyrazol-1-yl)-9H-purin-6-yl)morpholine]	–
1 to 10 nM	Cc1cccc(-c2ccn(-c3cc(N4CCOCC4)c4nc(CO)n(C)c4n3)n2)c1 [Ex. 75, (3-methyl-7-morpholino-5-(3-(m-tolyl)-11H-pyrazol-1-yl)-3H-imidazo[4,5-b]pyridin-2-yl)methanol]	–

IC50	Structure (SMILES)	other results
< 1 nM	Cc1cccc(-c2ccn(-c3nc(N4CCOCC4)c4sc(CN5CC6C(C5)C6N(C)C)cc4n3)n2)c1 (stereo not drawn) [Ex. 20, N,N-dimethyl-3-((4-morpholino-2-(3-(m-tolyl)-1H-pyrazol-1-yl)thieno[3,2-d]pyrimidin-6-yl)methyl)-3-azabicyclo[3.1.0]hexan-6-amine]	–
< 1 nM	Cc1cccc(-c2ccn(-c3nc(N4CCOCC4)c4sc(CN5CCC(N6CCC6)C(F)C5)c(C)c4n3)n2)c1 (stereo not drawn) [Ex. 58, 4-(6-((4-(azetidin-1-yl)-3-fluoropiperidin-1-yl)methyl)-7-methyl-2-(3-(m-tolyl)-1H-pyrazol-1-yl)thieno[3,2-d]pyrimidin-4-yl)morpholine]	–
< 1 nM	Cc1cccc(-c2ccn(-c3cc(N4CCOCC4)c4sc(CN5CCC(N(C)C)C(F)C5)cc4n3)n2)c1 (stereo not drawn) [Ex. 69, 3-fluoro-N,N-dimethyl-1-((7-morpholino-5-(3-(m-tolyl)-1H-pyrazol-1-yl)thieno[3,2-b]pyridin-2-yl)methyl)piperidin-4-amine]	–
–	Cc1cccc(-c2ccn(-c3cc(N4CCOCC4)c4sc(CN5CCC(C(C)(C)O)CC5)c(C)c4n3)n2)c1 [Ex. 168, 2-(1-((3-Methyl-7-morpholino-5-(3-(m-tolyl)-1H-pyrazol-1-yl)thieno[3,2-b]pyridin-2-yl)methyl)piperidin-4-yl)propan-2-ol]	inhibition at 0.003 µM: 23%
–	Cc1cccc(-c2ccn(-c3nc(N4CCOCC4)c4sc(CN5CCC(C(C)(C)O)CC5)cc4n3)n2)c1 [Ex. 5, 2-(1-((4-morpholino-2-(3-(m-tolyl)-1H-pyrazol-1-yl)thieno[3,2-d]pyrimidin-6-yl)methyl)piperidin-4-yl)propan-2-ol]	inhibition at 0.05 µM: 100%
< 1 nM	Cc1cccc(-c2ccn(-c3nc(N4CCOCC4)c4sc(CN5CCC(N(C)C)CC5)cc4n3)n2)c1 [Ex. 4, N, N-dimethyl-1-((4-morpholino-2-(3-(m-tolyl)-1H-pyrazol-1-yl)thieno[3,2-d]pyrimidin-6-yl)methyl)piperidin-4-amine]	–
< 1 nM	Cc1cccc(-c2ccn(-c3cc(N4CCOCC4)c4nc(CN5CCC(C(C)(C)O)CC5)n(C)c4n3)n2)c1 [Ex. 76, 2-(1-((3-methyl-7-morpholino-5-(3-(m-tolyl)-1H-pyrazol-1-yl)-3H-imidazo[4,5-b]pyridin-2-yl)methyl)piperidin-4-yl)propan-2-ol]	–
< 1 nM	Cc1cccc(-c2ccn(-c3cc(N4CCOCC4)c4nc(CN5CCN(S(C)(=O)=O)CC5)n(C)c4n3)n2)c1 [Ex. 72, 4-(3-methyl-2-((4-(methylsulfonyl)piperazin-1-yl)methyl)-5-(3-(m-tolyl)-1H-pyrazol-1-yl)-3H-imidazo[4,5-b]pyridin-7-yl)morpholine]	–
–	CO[C@@H](C)c1cccc(-c2ccn(-c3cc(N4CCOCC4)c4sc(CN5CCOCC5)cc4n3)n2)c1 (single isomer, unassigned) [Ex. 212, 4-(5-(3-(3-(1-methoxyethyl)phenyl)-1H-pyrazol-1-yl)-2-(morpholinomethyl)thieno[3,2-b]pyridin-7-yl)morpholine]	inhibition at 0.005 µM (@ 5 nM): 0%
–	Cc1cccc(-c2ccn(-c3cc(N4CCOCC4)c4nc(CN5CCC(N6CCOCC6)CC5)[nH]c4n3)n2)c1 [Ex. 42, 4-(1-((7-morpholino-5-(3-(m-tolyl)-1H-pyrazol-1-yl)-3H-imidazo[4,5-b]pyridin-2-yl)methyl)piperidin-4-yl)morpholine]	inhibition at 1 µM (@ 1000 nM): 98%
1 to 10 nM	COC1(c2sc3c(N4CCOCC4)nc(-n4ccc(-c5cccc(C)c5)n4)nc3c2C)COC1 [Ex. 65, 4-(6-(3-methoxyoxetan-3-yl)-7-methyl-2-(3-(m-tolyl)-1H-pyrazol-1-yl)thieno[3,2-d]pyrimidin-4-yl)morpholine]	–
< 1 nM	Cc1cccc(-c2ccn(-c3cc(N4CCOCC4)c4nc(CN5CCN(C)CC5)[nH]c4n3)n2)c1 [Ex. 39, 4-(2-((4-methylpiperazin-1-yl)methyl)-5-(3-(m-tolyl)-1H-pyrazol-1-yl)-3H-imidazo[4,5-b]pyridin-7-yl)morpholine]	–
1 to 10 nM	Cc1cccc(-c2ccn(-c3nc(N4CCOCC4)c4sc(CN5CCN(C)CC5)cc4n3)n2)c1 [Ex. 31, 4-(6-((4-methylpiperazin-1-yl)methyl)-2-(3-(m-tolyl)-1H-pyrazol-1-yl)thieno[3,2-d]pyrimidin-4-yl)morpholine]	–
–	Cc1cccc(-c2ccn(-c3nc(N4CCOCC4)c4nc(CN5CCN(C)CC5)[nH]c4n3)n2)c1 [Ex. 35, 4-(8-((4-methylpiperazin-1-yl)methyl)-2-(3-(m-tolyl)-1H-pyrazol-1-yl)-9H-purin-6-yl)morpholine]	inhibition at 0.001 µM (@ 1 nM): 13%
< 1 nM	Cc1cccc(-c2ccn(-c3cc(N4CCOCC4)c4nc(CN5CCOCC5)n(C)c4n3)n2)c1 [Ex. 74, 4-(3-methyl-2-(morpholinomethyl)-5-(3-(m-tolyl)-1H-pyrazol-1-yl)-3H-imidazo[4,5-b]pyridin-7-yl)morpholine]	–
–	CC(=O)N(C)C1CCN(Cc2cc3nc(-n4ccc(-c5cccc(C)c5)n4)nc(N4CCOCC4)c3s2)CC1 [Ex. 7, N-methyl-N-(1-((4-morpholino-2-(3-(m-tolyl)-1H-pyrazol-1-yl)thieno[3,2-d]pyrimidin-6-yl)methyl)piperidin-4-yl)acetamide]	inhibition at 0.05 µM: 100%
